≈ marks a conversion by molar mass, not a printed value.
Assays:
Assay type in all cases: cell-based
[1] = tested on: Staphylococcus aureus 209PJC1; assay: Minimum Growth Inhibitory Concentration (MIC), Staphylococcus aureus 209PJC1; settings: Table 1, bacterium 1: Staphylococcus aureus 209PJC1; read-out: Minimum Growth Inhibitory Concentration (MIC)
From the text: (§1) Minimum Growth Inhibitory Concentration (MIC) mcg/ml
1. Staphylococcus aureus 209PJC1
as §1
2. Staphylococcus aureus 209 PJC1

[2] = tested on: Enterobacter cloacae G0006; assay: Minimum Growth Inhibitory Concentration (MIC), Enterobacter cloacae G0006; settings: Table 1, bacterium 6: Enterobacter cloacae G0006
From the text: as §1
6. Enterobacter cloacae G0006

Bacillus subtilis = assay: Minimum Growth Inhibitory Concentration (MIC), Bacillus subtilis; settings: Table 1, bacterium 2: Bacillus subtilis
From the text: as §1

Proteus vulgaris OX19 = assay: Minimum Growth Inhibitory Concentration (MIC), Proteus vulgaris OX19; settings: Table 1, bacterium 5: Proteus vulgaris OX19
From the text: as §1
5. Proteus vulgaris OX19

Serratia marcescens N 01 = assay: Minimum Growth Inhibitory Concentration (MIC), Serratia marcescens N 01; settings: N01; Table 1, bacterium 7: Serratia marcescens N 01
From the text: as §1
7. Serratia marcescens N 01

[3] = tested on: Klebsiella pneumoniae GN 69; assay: Minimum Growth Inhibitory Concentration (MIC), Klebsiella pneumoniae GN 69; settings: GN69; Table 1, bacterium 4: Klebsiella pneumoniae GN 69
From the text: as §1
4. Klebsiella pneumoniae GN 69

[4] = tested on: Pseudomonas aeruginosa MB 3833; assay: Minimum Growth Inhibitory Concentration (MIC), Pseudomonas aeruginosa MB 3833; settings: MB3833; Table 1, bacterium 8: Pseudomonas aeruginosa MB 3833
From the text: as §1
8. Pseudomonas aeruginosa MB 3833

Escherichia coli RGN 823 = assay: Minimum Growth Inhibitory Concentration (MIC), Escherichia coli RGN 823; settings: RGN823; Table 1, bacterium 3: Escherichia coli RGN 823
From the text: as §1
3. Escherichia coli RGN 823

Proteus vulgaris GN 76 = assay: Minimum Growth Inhibitory Concentration (MIC), Proteus vulgaris GN 76; settings: GN76; Table 1, bacterium 10: Proteus vulgaris GN 76; read-out: Minimum Growth Inhibitory Concentration (MIC)
From the text: as §1
10. Proteus vulgaris GN 76
as §1
8. Proteus vulgaris GN 76

[5] = tested on: Enterobacter cloacae G0005; assay: Minimum Growth Inhibitory Concentration (MIC), Enterobacter cloacae G0005; settings: Table 1, bacterium 11: Enterobacter cloacae G0005
From the text: as §1
11. Enterobacter cloacae G0005

[6] = tested on: Streptococcus faecalis ATCC 8043; assay: Minimum Growth Inhibitory Concentration (MIC), Streptococcus faecalis ATCC 8043; settings: Enterococcus faecalis, ATCC8043; Table 1, bacterium 9: Streptococcus faecalis ATCC 8043
From the text: as §1
9. Streptococcus faecalis ATCC 8043

Row | Compound | MIC [1] [µg/mL] | MIC [2] [µg/mL] | MIC (Bacillus subtilis) [µg/mL] | MIC (Proteus vulgaris OX19) [µg/mL] | MIC (Serratia marcescens N 01) [µg/mL] | MIC [3] [µg/mL] | MIC [4] [µg/mL] | MIC (Escherichia coli RGN 823) [µg/mL] | MIC (Proteus vulgaris GN 76) [µg/mL] | MIC [5] [µg/mL] | MIC [6] [µg/mL]
1 | CO/N=C(\C(=O)N[C@@H]1C(=O)N2C(C(=O)[O-])=C(CSc3ccc4c([n+]3C)CCC4)CS[C@H]12)c1csc(N)n1 [Example 1, (6R,7R)-7-[(Z)-2-(2-Aminothiazol-4-yl)-2-methoxyiminoacetamido]-3-[(5,6-cyclopenteno-1-methylpyridinium-2-yl)thiomethyl]-ceph-3-em-4-carboxylate] | 0.2 (≈ 0.357 µM) | 1.56 (≈ 2.78 µM) | 1.56 (≈ 2.78 µM) | 0.39 (≈ 0.696 µM) | 0.05 (≈ 0.0892 µM) | ≤ 0.025 | 12.5 (≈ 22.3 µM) | ≤ 0.025 |  |  | 
2 | CO/N=C(\C(=O)N[C@@H]1C(=O)N2C(C(=O)[O-])=C(CSc3cc[n+](C)c4c3CCC4)CS[C@H]12)c1csc(N)n1 [Example 2, (6R,7R)-7-[(Z)-2-(2-Aminothiazol-4-yl)-2-methoxyiminoacetamido]-3-[(2,3-cyclopenteno-1-methylpyridinium-4-yl)thiomethyl]-ceph-3-em-4-carboxylate] | 0.05 (≈ 0.0892 µM) | 0.78 (≈ 1.39 µM) | 1.56 (≈ 2.78 µM) | 0.1 (≈ 0.178 µM) | 0.05 (≈ 0.0892 µM) | ≤ 0.025 | 6.25 (≈ 11.1 µM) | ≤ 0.025 |  |  | 
3 | CO/N=C(\C(=O)N[C@@H]1C(=O)N2C(C(=O)[O-])=C(CSc3cc(C)[n+](C)c4c3CCC4)CS[C@H]12)c1csc(N)n1 [Example 4, (6R,7R)-7-[(Z)-2-(2-Aminothiazol-4-yl)-2-methoxyiminoacetamido]-3-[(6-methyl-2,3-cyclopenteno-1-methylpyridinium-4-yl)thiomethyl]-ceph-3-em-4-carboxylate] | 0.1 (≈ 0.174 µM) | 0.78 (≈ 1.36 µM) | 0.2 (≈ 0.348 µM) | 0.2 (≈ 0.348 µM) | 0.1 (≈ 0.174 µM) | 0.1 (≈ 0.174 µM) | 6.25 (≈ 10.9 µM) | 0.1 (≈ 0.174 µM) |  |  | 
4 | Cc1cc(SCC2=C(C(=O)[O-])N3C(=O)[C@@H](NC(=O)/C(=N\OC[C@@H](N)C(=O)O)c4csc(N)n4)[C@H]3SC2)c2c([n+]1C)CCCC2 [Example 12, (6R,7R)-7-[(Z)-2-(2-Aminothiazol-4-yl)-2-(2D-2-amino-2-carboxyethoxyimino)acetamido]-3-[(6-methyl-2,3-cyclohexeno-1-methylpyridinium-4-yl)thiomethyl]-ceph-3-em-4-carboxylate] | 3.13 (≈ 4.73 µM) | 6.25 (≈ 9.44 µM) | 12.5 (≈ 18.9 µM) | 1.56 (≈ 2.36 µM) | 1.56 (≈ 2.36 µM) | 0.78 (≈ 1.18 µM) | 50 (≈ 75.6 µM) | 1.56 (≈ 2.36 µM) |  |  | 
5 | C[n+]1c(SCC2=C(C(=O)[O-])N3C(=O)[C@@H](NC(=O)/C(=N\OC(C)(C)C(=O)O)c4csc(N)n4)[C@H]3SC2)ccc2c1CCCC2 [Example 18, (6R,7R)-7-[(Z)-2-(2-Aminothiazol-4-yl)-2-(1-methyl-1-carboxyethoxyimino)acetamido]-3-[(5,6-cyclohexeno-1-methylpyridinium-2-yl)thiomethyl]-ceph-3-em-4-carboxylate] | 1.56 (≈ 2.41 µM) | 6.25 (≈ 9.66 µM) | 12.5 (≈ 19.3 µM) | 0.1 (≈ 0.155 µM) | 0.05 (≈ 0.0773 µM) | 0.39 (≈ 0.603 µM) | 6.25 (≈ 9.66 µM) | 0.2 (≈ 0.309 µM) |  |  | 
6 | CO/N=C(\C(=O)N[C@@H]1C(=O)N2C(C(=O)[O-])=C(CSc3cc[n+](CC(N)=O)c4c3CCC4)CS[C@H]12)c1csc(N)n1 [Example 35, (6R,7R)-7-[(Z)-2-(2-Aminothiazol-4-yl)-2-methoxyiminoacetamido]-3-[(2,3-cyclopenteno-1-carbamoylmethylpyridinium-4-yl)thiomethyl]-ceph-3-em-4-carboxylate] | 0.1 (≈ 0.166 µM) |  | 0.2 (≈ 0.331 µM) |  | 0.1 (≈ 0.166 µM) | 0.05 (≈ 0.0828 µM) | 12.5 (≈ 20.7 µM) | 0.1 (≈ 0.166 µM) | 0.39 (≈ 0.646 µM) | 0.2 (≈ 0.331 µM) | 0.2 (≈ 0.331 µM)

Reference: US4785090A, “Cephalosporin derivatives” (Meiji Seika Kaisha, Ltd., priority 1984, dated 1988)
